Earlier results in US20220016082A1, “COMBINATION THERAPIES FOR HIGH AND VERY HIGH RISK MDS” (MEI Pharma, Inc., priority 2018, published 2022).

Legend:
[1] = test system: Higher-Risk Myelodysplastic Syndromes and Chronic Myelomonocytic Leukemia; conditions: arms N = 92 / 93 / 92; total N = 277
[2] = test system: MDS; conditions: N = 179

SMILES: Nc1ncn([C@@H]2O[C@H](CO)[C@@H](O)[C@H]2O)c(=O)n1 [AZA Monotherapy, 5-azacytidine]
- CR (of CR/PR/HI) [1]: 24%
- HI (of CR/PR/HI) [1]: 14%
- Marrow CR [1]: 12%
- ORR = CR + PR + mCR [1]: 38%
- PR (of CR/PR/HI) [1]: 0%
- CR (of CR + PR) [2]: 17%
- CR + PR [2]: 29%
- HI [2]: 49%
- PR (of CR + PR) [2]: 12%
